From DBAASP
≈ marks a conversion by molar mass, not a printed value. Where “and” joins values, the source holds several entries; their conditions need not be identical. Identical values can stand only once. One block for each compound: values may come before it.

Tests used:
Test in all cases: ≥ marks a high value that may be exact or a test limit, other limits are often not marked, values filed in µg/mL are converted to µM
[1] = tested on: Bacillus subtilis VKM B-501
[2] = tested on: Escherichia coli DH5alpha
[3] = tested on: Pseudomonas aeruginosa PAO1
[4] = tested on: Escherichia coli MH1
[5] = tested on: Arthrobacter globiformis VKM Ac-1112
[6] = tested on: Saccharomyces cerevisiae Y190
[7] = tested on: Candida albicans ATCC 90028
[8] = tested on: Klebsiella pneumoniae ATCC 13883
[9] = tested on: Acinetobacter baumannii ATCC 19606
[10] = tested on: Saccharomyces cerevisiae
[11] = tested on: Escherichia coli ATCC 25922
[12] = tested on: Staphylococcus aureus ATCC 25923
[13] = tested on: Listeria ivanovii
[14] = tested on: Staphylococcus aureus ST1065
[15] = tested on: Salmonella enterica subsp. enterica serovar Enteritidis
[16] = tested on: Candida parapsilosis ATCC 22019
[17] = tested on: Enterococcus faecalis ATCC 29212
[18] = tested on: Streptococcus pyogenes ATCC 19615
[19] = tested on: Escherichia coli ML-35p
[20] = tested on: Pseudomonas aeruginosa ATCC 27853
[21] = tested on: Candida albicans ATCC 37092
[22] = tested on: Staphylococcus aureus ATCC 29213
[23] = tested on: Candida albicans ATCC 64550
[24] = tested on: Escherichia coli
[25] = tested on: Salmonella enterica serovar Typhimurium
[26] = tested on: Escherichia coli UB1005
[27] = tested on: Staphylococcus aureus USA 300
[28] = tested on: Staphylococcus aureus USA 100
[29] = tested on: Pseudomonas aeruginosa H103
[30] = tested on: Candida albicans
[31] = tested on: Pseudomonas aeruginosa ATCC 9027
[32] = tested on: Staphylococcus epidermidis
[33] = tested on: Escherichia coli W160-37
[34] = tested on: Staphylococcus aureus

MIC [1]: 1.1 µM (≈ 3.17 µg/mL) | MIC [2]: 4.4 µM (≈ 12.7 µg/mL) | MIC [3]: > 35 µM | MIC [4]: 4.4 µM (≈ 12.7 µg/mL) | MIC [5]: 0.3 µM (≈ 0.865 µg/mL) | MIC [6]: ≥ 35 µM
Compound: CC[C@H](C)[C@H](NC(=O)[C@H](Cc1ccc(O)cc1)NC(=O)[C@H](CCC(N)=O)NC(=O)[C@H](CCCCN)NC(=O)[C@H](CC(C)C)NC(=O)[C@H](CCCCN)NC(=O)[C@H](CCC(=O)O)NC(=O)CNC(=O)[C@H](CCSC)NC(=O)[C@H](CO)NC(=O)[C@H](CCCCN)NC(=O)[C@@H](NC(=O)[C@H](CCCCN)NC(=O)[C@H](CC(=O)O)NC(=O)[C@H](CCCCN)NC(=O)[C@H](CC(C)C)NC(=O)[C@@H](N)CO)C(C)C)C(=O)N[C@@H](CCC(N)=O)C(=O)N[C@H](C(=O)N[C@@H](Cc1c[nH]c2ccccc12)C(=O)N[C@@H](CCCCN)C(=O)N[C@@H](C)C(=O)N[C@@H](CCCCN)C(=O)N[C@@H](Cc1ccccc1)C(N)=O)[C@@H](C)O [SLKDKVKSMGEKLKQYIQTWKAKF]

MIC [21]: 0.5 µM (≈ 1.64 µg/mL) | MIC [11]: 5.84 µM (≈ 19.1 µg/mL) | MIC [22]: 30.5 µM (≈ 99.8 µg/mL)
Compound: CC[C@H](C)[C@H](NC(=O)[C@@H]1CCCN1C(=O)[C@H](CCCN=C(N)N)NC(=O)[C@@H]1CCCN1C(=O)CNC(=O)[C@@H]1CCCN1C(=O)[C@H](CCCN=C(N)N)NC(=O)[C@@H]1CCCN1C(=O)[C@H](Cc1ccccc1)NC(=O)[C@@H]1CCCN1C(=O)[C@H](CC(C)C)NC(=O)[C@@H]1CCCN1C(=O)[C@H](CCCN=C(N)N)NC(=O)[C@@H]1CCCN1C(=O)[C@@H](NC(=O)[C@@H]1CCCN1C(=O)[C@H](CCCN=C(N)N)NC(=O)[C@@H]1CCCN1C(=O)CNC(=O)[C@@H]1CCCN1C(=O)[C@H](CCCN=C(N)N)NC(=O)[C@@H]1CCCN1C(=O)[C@H](Cc1ccccc1)NC(=O)[C@@H]1CCCN1C(=O)[C@H](CC(C)C)NC(=O)[C@@H]1CCCN1)[C@@H](C)CC)C(=O)N1CCC[C@H]1C(=O)N[C@@H](CCCN=C(N)N)C(=O)N1CCC[C@H]1C(=O)O [PLPFPRPGPRPIPRPLPFPRPGPRPIPRP]

MIC [23]: ≥ 100 µM | MIC [24]: 3 µM (≈ 4.75 µg/mL) | MIC [12]: 3 µM and 6 µM
Compound: NCCCC[C@H](NC(=O)[C@H](CCCCN)NC(=O)[C@H](CCCN=C(N)N)NC(=O)[C@H](CCCN=C(N)N)NC(=O)[C@H](Cc1c[nH]c2ccccc12)NC(=O)[C@H](Cc1c[nH]c2ccccc12)NC(=O)[C@H](CCCN=C(N)N)NC(=O)[C@H](CCCCN)NC(=O)[C@H](Cc1c[nH]c2ccccc12)NC(=O)[C@@H](N)CCCN=C(N)N)C(N)=O [RWKRWWRRKK]

MIC [21]: 1.05 µM (≈ 2.28 µg/mL) | MIC [11]: 0.89 µM (≈ 1.93 µg/mL) | MIC [22]: 0.81 µM (≈ 1.76 µg/mL)
Compound: CC[C@H](C)[C@H](NC(=O)[C@H](CCCN=C(N)N)NC(=O)[C@@H](N)CCCN=C(N)N)C(=O)N[C@@H](CCCN=C(N)N)C(=O)N1CCC[C@H]1C(=O)N[C@@H](CCCN=C(N)N)C(=O)N1CCC[C@H]1C(=O)N1CCC[C@H]1C(=O)N[C@@H](CCCN=C(N)N)C(=O)N[C@@H](CC(C)C)C(=O)N1CCC[C@H]1C(=O)N[C@@H](CCCN=C(N)N)C(=O)N1CCC[C@H]1C(=O)N[C@@H](CCCN=C(N)N)C(=O)N1CCC[C@H]1C(=O)N[C@@H](CCCN=C(N)N)C(=O)N1CCC[C@H]1C(=O)O [RRIRPRPPRLPRPRPRP]

MIC [1]: 2.9 µM (≈ 7.04 µg/mL) | MIC [2]: 23 µM (≈ 55.8 µg/mL) | MIC [3]: > 45 µM | MIC [4]: 28 µM (≈ 67.9 µg/mL) | MIC [5]: 0.7 µM (≈ 1.7 µg/mL) | MIC [6]: 23 µM (≈ 55.8 µg/mL)
Compound: CSCC[C@H](NC(=O)[C@H](CO)NC(=O)[C@H](C)NC(=O)[C@H](Cc1c[nH]c2ccccc12)NC(=O)[C@@H](N)CO)C(=O)N[C@@H](C)C(=O)N[C@@H](CCCCN)C(=O)N[C@@H](CCCCN)C(=O)N[C@@H](CC(C)C)C(=O)N[C@@H](CCCCN)C(=O)N[C@@H](CCC(=O)O)C(=O)N[C@@H](Cc1ccc(O)cc1)C(=O)N[C@@H](CCSC)C(=O)N[C@@H](CCC(=O)O)C(=O)N[C@@H](CCCCN)C(=O)N[C@@H](CC(C)C)C(=O)N[C@@H](CCCCN)C(=O)N[C@@H](CCC(N)=O)C(=O)N[C@@H](CCCN=C(N)N)C(=O)N[C@@H](C)C(N)=O [SWASMAKKLKEYMEKLKQRA]

MIC [7]: ≥ 100 µM | MIC [25]: 13.5 µM (≈ 16 µg/mL) | MIC [26]: 3.38 µM (≈ 4 µg/mL) | MIC [12]: 3.38 µM (≈ 4 µg/mL) | MIC [27]: 12.5 µM (≈ 14.8 µg/mL) | MIC [28]: 12.5 µM (≈ 14.8 µg/mL) | MIC [17]: 6.75 µM (≈ 7.99 µg/mL) | MIC [29]: 13.5 µM (≈ 16 µg/mL) | MIC [30]: 13.5 µM (≈ 16 µg/mL) | MIC [31]: 25 µM (≈ 29.6 µg/mL) | MIC [32]: 3.38 µM (≈ 4 µg/mL)
Compound: CC[C@H](C)[C@H](NC(=O)[C@@H](NC(=O)[C@H](Cc1c[nH]c2ccccc12)NC(=O)[C@@H](NC(=O)[C@@H](N)CCCN=C(N)N)[C@@H](C)CC)C(C)C)C(=O)N[C@@H](CCCN=C(N)N)C(=O)N[C@@H](Cc1c[nH]c2ccccc12)C(=O)N[C@@H](CCCN=C(N)N)C(N)=O [RIWVIRWR]

The remaining lines, values behind:

Compound: CC[C@H](C)[C@H](NC(=O)CNC(=O)[C@H](CCCCN)NC(=O)[C@H](C)NC(=O)[C@@H](N)Cc1ccccc1)C(=O)N[C@@H](C)C(=O)NCC(=O)N[C@@H](CCSC)C(=O)N[C@@H](C)C(=O)NCC(=O)N[C@@H](CCCCN)C(=O)N[C@@H](CC(C)C)C(=O)N[C@@H](Cc1ccccc1)C(N)=O [FAKGIAGMAGKLF]
MIC [7]: ≥ 200 µM | MIC [8]: ≥ 200 µM | MIC [9]: > 200 µM | MIC [10]: ≥ 200 µM | MIC [11]: > 200 µM | MIC [12]: > 200 µM | MIC [13]: ≥ 200 µM | MIC [14]: ≥ 200 µM | MIC [15]: ≥ 200 µM | MIC [16]: ≥ 200 µM | MIC [17]: > 200 µM | MIC [18]: ≥ 100 µM | MIC [19]: ≥ 200 µM | MIC [20]: > 200 µM

Compound: CC[C@H](C)[C@H](NC(=O)[C@H](Cc1c[nH]c2ccccc12)NC(=O)[C@H](CCCCN)NC(=O)[C@H](CCCCN)NC(=O)[C@H](CC(C)C)NC(=O)[C@H](Cc1ccccc1)NC(=O)[C@H](CCCCN)NC(=O)[C@H](CCCCN)NC(=O)[C@H](CC(C)C)NC(=O)[C@H](CC(C)C)NC(=O)[C@H](CCCCN)NC(=O)[C@@H]1CCCN1)C(=O)NCC(=O)O [PKLLKKFLKKWIG]
MIC [33]: 24 µM (≈ 38.4 µg/mL) | MIC [34]: 13 µM (≈ 20.8 µg/mL)

Compound: CC[C@H](C)[C@H](NC(=O)CNC(=O)[C@@H](N)CCCCN)C(=O)N[C@H](C(=O)NCC(=O)N[C@@H](CCSC)C(=O)N[C@@H](CC(C)C)C(=O)NCC(=O)N[C@@H](CCCCN)C(=O)N[C@@H](CC(C)C)C(=O)N[C@@H](Cc1ccccc1)C(N)=O)C(C)C [KGIVGMLGKLF]
MIC [7]: 12 µM (≈ 13.9 µg/mL) | MIC [8]: ≥ 100 µM | MIC [9]: 50 µM (≈ 58.1 µg/mL) | MIC [10]: 12 µM (≈ 13.9 µg/mL) | MIC [11]: 30 µM (≈ 34.8 µg/mL) | MIC [12]: 40 µM (≈ 46.5 µg/mL) | MIC [13]: 12 µM (≈ 13.9 µg/mL) | MIC [14]: ≥ 40 µM | MIC [15]: ≥ 100 µM | MIC [16]: ≥ 50 µM | MIC [17]: > 200 µM | MIC [18]: ≥ 50 µM | MIC [19]: 25 µM (≈ 29 µg/mL) | MIC [20]: 25 µM (≈ 29 µg/mL)

Compound: CC[C@H](C)[C@H](N)C(=O)N[C@@H](CC(C)C)C(=O)N1CCC[C@H]1C(=O)N[C@@H](CC(C)C)C(=O)N[C@@H](CCCCN)C(=O)N[C@@H](CC(C)C)C(=O)N1CCC[C@H]1C(=O)N[C@@H](CC(C)C)C(=O)N[C@@H](CC(C)C)C(=O)N1CCC[C@H]1C(=O)N[C@@H](Cc1c[nH]c2ccccc12)C(=O)N[C@@H](CCCN=C(N)N)C(=O)N[C@@H](CCCN=C(N)N)C(N)=O [ILPLKLPLLPWRR]
MIC [33]: 12.4 µM (≈ 20 µg/mL) | MIC [34]: 3.1 µM (≈ 5 µg/mL)
